Results from patent US20070049564A1 (Wyeth, priority 2005, published 2007).
In brackets after ≈: the same amount, converted by molar mass. Read-outs that look alike come from different tables or passages of the source.

Columns and labels:
S. aureus GC 6335 = test: MIC, broth microdilution; conditions: Staphylococcus aureus
E. coli GC 2231 = test: MIC, broth microdilution; conditions: Escherichia coli
Procedure: (§1) Antimicrobial susceptibility testing. The in vitro activities of the antibiotics are determined by the broth microdilution method as recommended by the National Committee for Clinical Laboratory Standards (NCCLS) (1). Mueller-Hinton II broth (MHBII)(BBL Cockeysville, Md.) is the medium employed in the testing procedures. Microtiter plates containing serial dilutions of each antimicrobial agent are inoculated with each organism to yield the appropriate density (10^5 CFU/ml) in a 100 μl final volume. The plates are incubated for 18-22 hours at 35° C. in ambient air.
Representative compounds were first incubated in mouse serum for an hour prior to the in vitro testing against a panel of selected gram-positive and gram-negative bacteria strains. All compounds were also pre-incubated in water for an hour prior to testing as control.

S. aureus GC 2216 = test: MIC, broth microdilution; conditions: Staphylococcus aureus
S. typhimurium GC 2172 = test: MIC, broth microdilution; conditions: Salmonella enterica, TYPHIMURIUM
E. faecium GC 4556 = test: MIC, broth microdilution; conditions: Enterococcus faecium
S. aureus GC 1079 = test: MIC, broth microdilution; conditions: Staphylococcus aureus
Procedure: as §1
(§2) Representative compounds were first incubated in mouse serum for an hour prior to the in vitro testing against a panel of selected gram-positive and gram-negative bacteria strains. All compounds were also pre-incubated in water for an hour prior to testing as control. Representative compounds of Formula I were incubated in human serum prior to MIC determination.

E. faecalis GC 2267 = test: MIC, broth microdilution; conditions: Enterococcus faecalis
E. coli GC 3226 = test: MIC, broth microdilution; conditions: Escherichia coli
Procedure: as §1, §2

Staph. aureus Smith = test: In vivo activity (oral, iv; ED50) against Staph. aureus Smith in mice
Procedure: Representative examples of compounds of Formula I were tested for the oral efficacy using S. aureus Smith in mice.

E. faecium GC 2243 = test: MIC, broth microdilution; conditions: Enterococcus faecium
E. coli GC 2272 = test: MIC, broth microdilution; conditions: Escherichia coli
E. coli GC 2234 = test: MIC, broth microdilution; conditions: Escherichia coli
S. aureus GC 6466 = test: MIC, broth microdilution; conditions: Staphylococcus aureus
E. coli GC 2232 = test: MIC, broth microdilution; conditions: Escherichia coli
S. pneumoniae+ GC 4465 = test: MIC, broth microdilution; conditions: Streptococcus pneumoniae
S. epidermidis GC 4935 = test: MIC, broth microdilution; conditions: Staphylococcus epidermidis
S. aureus GC 1131 = test: MIC, broth microdilution; conditions: Staphylococcus aureus
S. pneumoniae* GC 4465 = test: MIC, broth microdilution; conditions: Streptococcus pneumoniae
c. albicans GC 3066 = test: MIC, broth microdilution
S. pyogenes GC 4563 = test: MIC, broth microdilution; conditions: Streptococcus pyogenes
[1] = read-out: MINIMAL INHIBITORY CONCENTRATION MIC, pre-incubated in Mouse Serum
[2] = read-out: MINIMAL INHIBITORY CONCENTRATION MIC, pre-incubated in Water

CCCN(CC(=O)Nc1cc(N(C)C)c2c(c1O)C(=O)C1=C(O)[C@]3(O)C(=O)C(C(N)=O)=C(O)[C@@H](N(C)C)[C@@H]3C[C@@H]1C2)C(=O)OCOC(=O)c1ccsc1 [Example 27, ({[(2-{[(5aR,6aS,7S,10aS)-9-(aminocarbonyl)-4,7-bis(dimethylamino)-1,8,10a,11-tetrahydroxy-10,12-dioxo-5,5a,6,6a,7,10,10a,12-octahydrotetracen-2-yl]amino}-2-oxoethyl)(propyl)amino]carbonyl}oxy)methyl thiophene-3-carboxylate]
MIC (S. aureus GC 6335; GC6335, read-out: MINIMAL INHIBITORY CONCENTRATION MIC, pre-incubated in Mouse Serum): 0.25 µg/mL (≈ 0.331 µM) | MIC (S. aureus GC 6335; GC6335, read-out: MINIMAL INHIBITORY CONCENTRATION MIC, pre-incubated in Water): 0.5 µg/mL (≈ 0.662 µM) | MIC (E. coli GC 2231; GC2231, read-out: MINIMAL INHIBITORY CONCENTRATION MIC, pre-incubated in Mouse Serum): 1 µg/mL (≈ 1.32 µM) | MIC (E. coli GC 2231; GC2231, read-out: MINIMAL INHIBITORY CONCENTRATION MIC, pre-incubated in Water): > 64 µg/mL | MIC (S. aureus GC 2216; GC2216, read-out: MINIMAL INHIBITORY CONCENTRATION MIC, pre-incubated in Mouse Serum): 0.25 µg/mL (≈ 0.331 µM) | MIC (S. aureus GC 2216; GC2216, read-out: MINIMAL INHIBITORY CONCENTRATION MIC, pre-incubated in Water): 0.25 µg/mL (≈ 0.331 µM) | MIC (S. typhimurium GC 2172; [1]): 4 µg/mL (≈ 5.29 µM) | MIC (S. typhimurium GC 2172; [2]): > 64 µg/mL | MIC (E. faecium GC 4556; GC4556, read-out: MINIMAL INHIBITORY CONCENTRATION MIC, pre-incubated in Mouse Serum): 0.5 µg/mL (≈ 0.662 µM) | MIC (E. faecium GC 4556; GC4556, read-out: MINIMAL INHIBITORY CONCENTRATION MIC, pre-incubated in Water): 1 µg/mL (≈ 1.32 µM) | MIC (S. aureus GC 1079; GC1079, read-out: MINIMAL INHIBITORY CONCENTRATION MIC, pre-incubated in Mouse Serum): 1 µg/mL (≈ 1.32 µM) | MIC (S. aureus GC 1079; GC1079, read-out: MINIMAL INHIBITORY CONCENTRATION MIC, pre-incubated in Water): 2 µg/mL (≈ 2.65 µM) | MIC (E. faecalis GC 2267; GC2267, read-out: MINIMAL INHIBITORY CONCENTRATION MIC, pre-incubated in Mouse Serum): 1 µg/mL (≈ 1.32 µM) | MIC (E. faecalis GC 2267; GC2267, read-out: MINIMAL INHIBITORY CONCENTRATION MIC, pre-incubated in Water): 2 µg/mL (≈ 2.65 µM) | MIC (E. coli GC 3226; GC3226, read-out: MINIMAL INHIBITORY CONCENTRATION MIC, pre-incubated in Mouse Serum): 0.5 µg/mL (≈ 0.662 µM) | MIC (E. coli GC 3226; GC3226, read-out: MINIMAL INHIBITORY CONCENTRATION MIC, pre-incubated in Water): > 64 µg/mL | ED50 (Staph. aureus Smith; Staphylococcus aureus, in Mus musculus, iv, read-out: ED50 SIV (Staph aureus Smith)): 0.44 mg/kg | ED50 (Staph. aureus Smith; Staphylococcus aureus, in Mus musculus, po, read-out: ED50 SOD (Staph aureus Smith)): 3.9 mg/kg | ED50 (Staph. aureus Smith; Staphylococcus aureus, in Mus musculus, po, read-out: ED50 Staph Smith SOD): 3.9 mg/kg | ED50 (Staph. aureus Smith; iv, read-out: ED50 Staph Smith SIV): 0.44 mg/kg | MIC (E. faecium GC 2243; GC2243, read-out: MINIMAL INHIBITORY CONCENTRATION MIC, pre-incubated in Mouse Serum): 0.12 µg/mL (≈ 0.159 µM) | MIC (E. faecium GC 2243; GC2243, read-out: MINIMAL INHIBITORY CONCENTRATION MIC, pre-incubated in Water): 0.25 µg/mL (≈ 0.331 µM) | MIC (E. coli GC 2272; GC2272, read-out: MINIMAL INHIBITORY CONCENTRATION MIC, pre-incubated in Mouse Serum): 0.5 µg/mL (≈ 0.662 µM) | MIC (E. coli GC 2272; GC2272, read-out: MINIMAL INHIBITORY CONCENTRATION MIC, pre-incubated in Water): 32 µg/mL (≈ 42.3 µM) | MIC (E. coli GC 2234; GC2234, read-out: MINIMAL INHIBITORY CONCENTRATION MIC, pre-incubated in Mouse Serum): 0.5 µg/mL (≈ 0.662 µM) | MIC (E. coli GC 2234; GC2234, read-out: MINIMAL INHIBITORY CONCENTRATION MIC, pre-incubated in Water): 64 µg/mL (≈ 84.7 µM) | MIC (S. aureus GC 6466; GC6466, read-out: MINIMAL INHIBITORY CONCENTRATION MIC, pre-incubated in Mouse Serum): 0.12 µg/mL (≈ 0.159 µM) | MIC (S. aureus GC 6466; GC6466, read-out: MINIMAL INHIBITORY CONCENTRATION MIC, pre-incubated in Water): 0.25 µg/mL (≈ 0.331 µM) | MIC (E. coli GC 2232; GC2232, read-out: MINIMAL INHIBITORY CONCENTRATION MIC, pre-incubated in Mouse Serum): 0.5 µg/mL (≈ 0.662 µM) | MIC (E. coli GC 2232; GC2232, read-out: MINIMAL INHIBITORY CONCENTRATION MIC, pre-incubated in Water): 64 µg/mL (≈ 84.7 µM) | MIC (S. pneumoniae+ GC 4465; [1]): 1 µg/mL (≈ 1.32 µM) | MIC (S. pneumoniae+ GC 4465; [2]): 2 µg/mL (≈ 2.65 µM) | MIC (S. epidermidis GC 4935; GC4935, read-out: MINIMAL INHIBITORY CONCENTRATION MIC, pre-incubated in Mouse Serum): 0.25 µg/mL (≈ 0.331 µM) | MIC (S. epidermidis GC 4935; GC4935, read-out: MINIMAL INHIBITORY CONCENTRATION MIC, pre-incubated in Water): 1 µg/mL (≈ 1.32 µM) | MIC (S. aureus GC 1131; GC1131, read-out: MINIMAL INHIBITORY CONCENTRATION MIC, pre-incubated in Mouse Serum): 0.12 µg/mL (≈ 0.159 µM) | MIC (S. aureus GC 1131; GC1131, read-out: MINIMAL INHIBITORY CONCENTRATION MIC, pre-incubated in Water): 0.25 µg/mL (≈ 0.331 µM) | MIC (S. pneumoniae* GC 4465; [1]): < 0.06 µg/mL | MIC (S. pneumoniae* GC 4465; [2]): < 0.06 µg/mL | MIC (c. albicans GC 3066; Candida albicans, GC3066, read-out: MINIMAL INHIBITORY CONCENTRATION MIC): > 64 µg/mL | MINIMAL INHIBITORY CONCENTRATION MIC (c. albicans GC 3066; pre-incubated in Water): >64 UG/ML | MIC (S. pyogenes GC 4563; GC4563, read-out: MINIMAL INHIBITORY CONCENTRATION MIC, pre-incubated in Mouse Serum): < 0.06 µg/mL | MIC (S. pyogenes GC 4563; GC4563, read-out: MINIMAL INHIBITORY CONCENTRATION MIC, pre-incubated in Water): < 0.06 µg/mL
